Source: patent US8431597B2, “Benzimidazole derivatives” (Pfizer Inc., priority 2007, dated 2013)
Counter-ions that a name gives are not always drawn.

Target: T1, Smoothened (SMO) (Mus musculus, UniProt P56726)
T1 construct: C3H10T1/2 cells (ATCC #CCL-226) were split and seeded; endogenous in cells; host or cells: C3H10T1/2 (ATCC #CCL-226)
Test: Smoothened (SMO)/Sonic Hedgehog (SHh) Transient Transcriptional Activation Assay (Gli-luciferase reporter in C3H10T1/2 cells)
Format: cell-based, murine
Conditions: C3H 10T1/2, 2 μM compound; transfected C3H10T1/2 cells, recombinant human SHh 250 ng/mL, 20 hours, luciferase readout; read-out: SMO CELL % INHIBITION @ 2 μM
Method: As noted above, the compounds of the invention are useful as inhibitors of SMO. • Methods for determining the in vitro activity of these compounds are described below: Smoothened (SMO)/Sonic Hedgehog (SHh) Transient Transcriptional Activation Assay
On Day 1, 2×10^6 C3H10T1/2 cells (ATCC #CCL-226) were split and seeded in 12 mL of growth medium Basal Medium Eagle (BME, Invitrogen #21010-046) supplemented with 2 mM L-glutamine (Invitrogen #25030-081), 0.1 units/mL penicillin and 0.1 μg/mL streptomycin (Invitrogen #15140-122), and 10% Fetal Bovine Serum (FBS, Invitrogen #16140-071) in a T-75 flask (Costar #3376). They were allowed to attach for 4 hours at 37° C., 5% CO2. The cells were then transfected using Fugene 6 (Roch #11 814 443 001) in the following reaction: 48 μL Fugene 6 and 745 μL Opti-MEM (Invitrogen #31985-070) were mixed and allowed to sit at room temperature for 5 minutes. 8 μg of pGL4.14/mGli(CS) DNA (10× murine Gli response elements and minimal CS promoter) and 0.5 μg of pEGFP DNA (Clontech) were added, gently mixed and incubated at room temperature for 20 minutes. This entire transfection mix was then added to the T-75 flask containing the cells. The cells were incubated at 37° C., 5% CO2 for 18-24 hours.
On Day 2, the transfected cells were trypsinized and seeded into white 96 well plates (Costar #3917) in 100 μL/well of growth medium at a concentration of 20,000 cells/well. The cells were allowed to recover for 4 hours before adding serum starvation medium Dulbecco's Modified Eagle Medium (DMEM, Invitrogen #21063-029) supplemented with 2 mM L-glutamine, 0.1 units/mL penicillin and 0.1 μg/mL streptomycin, and 0.5% Calf Serum (CS, Invitrogen #26170-043). The growth media was aspirated off, and the cells were rinsed with 100 μL of starvation media. 95 μL of starvation media was then added to each well. The cells were incubated for 20 hours at 37° C., 5% CO2.
On Day 3, cells were dosed with test compounds at a final concentration ranging from 2 μM to 2 nM. Immediately after dosing cells with compounds, recombinant human sonic hedgehog (SHh, R&D Systems #1845-SH) was add to a final concentration of 250 ng/mL. A 25 μg vial of SHh was reconstituted with 250 μL PBS/0.1% BSA to give a 100 ng/μL working stock. This working stock was then diluted 1:20 in starvation media. The transfected cells were incubated with compounds and SHh for 20 hours at 37° C., 5% CO2.
Luciferase assays were conducted on Day 4 using Dual-Glo Luciferase assay system (Promega #E2940) according to Promega's protocol. Briefly, Dual-Glo luciferase reagent was made up and 100 μL were added to each well of the 96 well plate containing media. Plates were shaken at room temperature for 10 minutes, and then read on TopCount (Perkin-Elmer). The luminescence was recorded.

T1 sequence (P56726 33-793): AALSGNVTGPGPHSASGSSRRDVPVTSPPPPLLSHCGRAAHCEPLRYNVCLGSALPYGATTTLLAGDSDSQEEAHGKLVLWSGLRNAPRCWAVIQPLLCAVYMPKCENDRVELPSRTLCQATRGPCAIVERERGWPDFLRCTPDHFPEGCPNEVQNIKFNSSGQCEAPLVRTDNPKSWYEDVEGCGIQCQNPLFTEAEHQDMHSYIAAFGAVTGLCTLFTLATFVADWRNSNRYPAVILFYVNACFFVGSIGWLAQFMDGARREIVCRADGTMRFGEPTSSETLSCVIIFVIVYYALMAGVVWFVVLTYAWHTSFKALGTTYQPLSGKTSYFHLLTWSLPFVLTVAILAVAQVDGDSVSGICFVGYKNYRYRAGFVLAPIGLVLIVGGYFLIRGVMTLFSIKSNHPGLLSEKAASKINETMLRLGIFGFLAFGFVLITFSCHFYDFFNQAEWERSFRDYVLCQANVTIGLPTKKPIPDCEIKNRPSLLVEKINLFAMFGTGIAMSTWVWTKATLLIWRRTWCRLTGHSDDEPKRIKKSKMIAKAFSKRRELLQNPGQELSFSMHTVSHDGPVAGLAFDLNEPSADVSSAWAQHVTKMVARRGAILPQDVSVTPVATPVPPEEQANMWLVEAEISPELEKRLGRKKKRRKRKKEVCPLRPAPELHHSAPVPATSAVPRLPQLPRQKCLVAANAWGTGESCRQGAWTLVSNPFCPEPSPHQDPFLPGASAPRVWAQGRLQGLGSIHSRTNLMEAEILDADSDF

| inhibition at 2 µM [%] | Compound |
| --- | --- |
| 111 | CN1CC[C@@H](NC(=O)Nc2ccncc2)C[C@@H]1c1nc2ccccc2[nH]1 [Example 16, 1-[(2R,4R)-2-(1H-benzimidazol-2-yl)-1-methylpiperidin-4-yl)-3-pyridin-4-ylurea hydrochloride] |
| 108 | CN(C)c1ccc2[nH]c([C@H]3C[C@H](NC(=O)c4ccc5c(c4)OCCO5)CCN3C)nc2c1 [Example 27, N-{(2R,4R)-2-[5-(dimethylamino)-1H-benzimidazol-2-yl]-1-methylpiperidin-4-yl}-2,3-dihydro-1,4-benzodioxine-6-carboxamide hydrochloride] |
| 108 | COc1ccc(NC(=O)N[C@@H]2CCN(C)[C@@H](c3nc4cc(C)c(C)cc4[nH]3)C2)cn1 [Example 138, 1-[(2R,4R)-2-(5,6-dimethyl-1H-benzimidazol-2-yl)-1-methylpiperidin-4-yl]-3-(6-methoxypyridin-3-yl)urea hydrochloride] |
| 105 | CN1CC[C@@H](NC(=O)Nc2ccc(C(F)(F)F)nc2)C[C@@H]1c1nc2cc(C#N)ccc2[nH]1 [Example 55, 1-[(2R,4R)-2-(5-cyano-1H-benzimidazol-2-yl)-1-methylpiperidin-4-yl]-3-[6-(trifluoromethyl)pyridin-3-yl]urea hydrochloride] |
| 68.2 | CN1CC[C@@H](NC(=O)Cc2ccc3c(c2)CCO3)C[C@@H]1c1nc2ccccc2[nH]1 [Example 116, N-[(2R,4R)-2-(1H-benzimidazol-2-yl)-1-methylpiperidin-4-yl]-2-(2,3-dihydro-1-benzofuran-5-yl)acetamide trifluoroacetate] |
| 104 | CN1CC[C@@H](NC(=O)c2ccc3c(c2)OCCO3)C[C@@H]1c1nc2cc(F)c(F)cc2[nH]1 [Example 57, N-[(2R,4R)-2-(5,6-difluoro-1H-benzimidazol-2-yl)-1-methylpiperidin-4-yl]-2,3-dihydro-1,4-benzodioxine-6-carboxamide hydrochloride] |
| 101 | Cc1cc(NC(=O)N[C@@H]2CCN(C)[C@@H](c3nc4ccccc4[nH]3)C2)cnc1C [Example 71, 1-[(2R,4R)-2-(1H-benzimidazol-2-yl)-1-methylpiperidin-4-yl]-3-(5,6-dimethylpyridin-3-yl)urea hydrochloride] |
| 57.5 | CN1CC[C@@H](NC(=O)C(F)(F)c2ccccc2)C[C@@H]1c1nc2ccccc2[nH]1 [Example 122, N-[(2R,4R)-2-(1H-benzimidazol-2-yl)-1-methylpiperidin-4-yl]-2(2-difluoro-2-phenylacetamide trifluoroacetate] |

Second part, the compound before the results:

| Compound | inhibition at 2 µM [%] |
| --- | --- |
| Cc1ccc(NC(=O)N[C@@H]2CCN(C3CCC3)[C@@H](c3nc4cc(C)c(C)cc4[nH]3)C2)cn1 [Example 152, 1-[(2R,4R)-1-cycobutyl-2-(5,6-dimethy-1H-benzimidazol-2-yl)piperidin-4-yl]-3-(6-methylpyridin-3-yl)urea triflouroacetate] | 106 |
| N#Cc1ccc(NC(=O)N[C@@H]2CCN(Cc3ccccc3)[C@@H](c3nc4ccccc4[nH]3)C2)cc1 [Example 61, 1-[(2R,4R)-2-(1H-benzimidazol-2-yl)-1-benzylpiperidin-4-yl]-3-(4-cyanophenyl)urea] | 99.5 |
| CN1CC[C@@H](NC(=O)c2ccc3c(c2)OCCO3)C[C@H]1c1nc2ccccc2[nH]1 [Example 42, N-[(2S,4R)-2-(1H-benzimidazol-2-yl)-1-methylpiperidin-4-yl]-2,3-dihydro-1,4-benzodioxine-6-carboxamide hydrochloride] | 106 |
| Cc1ccc(NC(=O)N[C@@H]2CCN(C)[C@@H](c3nc4ccccc4[nH]3)C2)cn1 [Example 81, 1-[(2R,4R)-2-(1H-benzimidazol-2-yl)-1-methylpiperidin-4-yl]-3-(6-methylpyridin-3-yl)urea hydrochloride] | 97.8 |
| O=C(N[C@H]1C[C@@H](c2nc3ccccc3[nH]2)N(C(=O)OCc2ccccc2)C1)c1ccc2c(c1)OCCO2 [Example 10, benzyl (2S,4S)-2-(1H-benzimidazol-2-yl)-4-[(2,3-dihydro-1,4-benzodioxin-6-ylcarbonyl)amino]pyrrolidine-1-carboxylate] | 106 |
| CN1CC[C@@H](NC(=O)Nc2ccc(C#N)cc2)C[C@@H]1c1nc2cc(C(F)(F)F)ccc2[nH]1 [Example 7, 1-(4-cyanophenyl)-3-{(2R,4R)-1-methyl-2-[5-(trifluoromethyl)-1H-benzimidazol-2-yl]piperidin-4-yl}urea hydrochloride] | 109 |
| CN1CC[C@@H](NC(=O)Nc2ccc(C#N)cc2)C[C@@H]1c1nc2cc(F)ccc2[nH]1 [Example 51, 1-(4-cyanophenyl)-3-[(2R,4R)-2-(5-fluoro-1H-benzimidazol-2-yl)-1-methylpiperidin-4-yl]urea hydrochloride] | 105 |
| CN1CC[C@@H](NC(=O)Cc2cc3ccccc3o2)C[C@@H]1c1nc2ccccc2[nH]1 [Example 104, N-[(2R,4R)-2-(1H-benzimidazol-2-yl)-1-methylpiperidin-4-yl]-2-(1-benzofuran-2-yl)acetamide trifluoroacetate] | 99.5 |
| CN1CC[C@@H](NC(=O)Nc2ccc(C#N)cc2)C[C@@H]1c1nc2ccccc2[nH]1 [Example 31, 1-[(2R,4R)-2-(1H-benzimidazol-2-yl)-1-methylpiperidin-4-yl]-3-(4-cyanophenyl)urea hydrochloride] | 107 |
| CN1CC[C@@H](NC(=O)c2ccc(-c3cnco3)cc2)C[C@@H]1c1nc2ccccc2[nH]1 [Example 92, N-[(2R,4R)-2-(1H-benzimidazol-2-yl)-1-methylpiperidin-4-yl]-4-(1,3-oxazol-5-yl)benzamide hydrochloride] | 86.4 |
| CN1CC[C@@H](NC(=O)c2ccc3c(c2)CCO3)C[C@@H]1c1nc2ccccc2[nH]1 [Example 47, N-[(2R,4R)-2-(1H-benzimidazol-2-yl)-1-methylpiperidin-4-yl]-2,3-dihydro-1-benzofuran-5-carboxamide hydrochloride] | 105 |
| CC(C)CCN1CC[C@@H](NC(=O)Nc2ccc(C#N)cc2)C[C@@H]1c1nc2ccccc2[nH]1 [Example 60, 1-[(2R,4R)-2-(1H-benzimidazol-2-yl)-1-(3-methylbutyl)piperidin-4-yl]-3-(4-cyanophenyl)urea] | 104 |
| COc1ccc(NC(=O)N[C@@H]2CCN(C)[C@@H](c3nc4ccccc4[nH]3)C2)cn1 [Example 83, 1-[(2R,4R)-2-(1H-benzimidazol-2-yl)-1-methylpiperidin-4-yl]-3-(6-methoxypyridin-3-yl)urea hydrochloride] | 96.1 |
| CN1CC[C@@H](NC(=O)Cn2nc3ccccc3n2)C[C@@H]1c1nc2ccccc2[nH]1 [Example 106, N-[(2R,4R)-2-(1H-benzimidazol-2-yl)-1-methylpiperidin-4-yl]-2-(2H-1,2,3-benzotriazol-2-yl)acetamide trifluoroacetate] | 94.5 |
| Cc1ccc2nc([C@@H]3C[C@H](NC(=O)Nc4ccc(Cl)c(C(F)(F)F)c4)CN3C)[nH]c2c1 [Example 22, 1-[4-chloro-3-(trifluoromethyl)phenyl]-3-[(3S,5S)-1-methyl-5-(6-methyl-1H-benzimidazol-2-yl)pyrrolidin-3-yl]urea] | 102 |
| CN1CC[C@@H](NC(=O)c2cnc3c(c2)OCCO3)C[C@@H]1c1nc2ccccc2[nH]1 [Example 97, N-[(2R,4R)-2-(1H-benzimidazol-2-yl)-1-methylpiperidin-4-yl]-2,3-dihydro[1,4]dioxino[2,3-b]pyridine-7-carboxamide hydrochloride] | 75.4 |
| CN1CC[C@@H](NC(=O)Nc2ccc(C(F)(F)F)nc2)C[C@@H]1c1nc2ccccc2[nH]1 [Example 66, 1-[(2R,4R)-2-(1H-benzimidazol-2-yl)-1-methylpiperidin-4-y1]-3-[6-(trifluoromethyl)pyridin-3-yl]urea hydrochloride] | 103 |
